Experimental data: US11746087B1, “C4-carboxylic acid-substituted tryptamine derivatives and methods of using” (priority 2022, dated 2023)

How the values were obtained:
[1] = target: T1, 5-HT1A receptor (Homo sapiens, UniProt P08908); assay: cAMP-Glo assay in +5-HT1A vs −5-HT1A CHO-K1 cells; assay type: cell-based; settings: for 5-HT1A receptor modulation, +5-HT1A vs −5-HT1A cultures: cAMP assay with 4 mM forskolin; for cAMP levels in +5-HT1A cells with increasing ligand: cells stimulated with 4 mM forskolin, compared with −5-HT1A cells
T1 construct: host or cells: CHO-K1 (co-expressing Ga15)
T1 sequence (P08908 1-422): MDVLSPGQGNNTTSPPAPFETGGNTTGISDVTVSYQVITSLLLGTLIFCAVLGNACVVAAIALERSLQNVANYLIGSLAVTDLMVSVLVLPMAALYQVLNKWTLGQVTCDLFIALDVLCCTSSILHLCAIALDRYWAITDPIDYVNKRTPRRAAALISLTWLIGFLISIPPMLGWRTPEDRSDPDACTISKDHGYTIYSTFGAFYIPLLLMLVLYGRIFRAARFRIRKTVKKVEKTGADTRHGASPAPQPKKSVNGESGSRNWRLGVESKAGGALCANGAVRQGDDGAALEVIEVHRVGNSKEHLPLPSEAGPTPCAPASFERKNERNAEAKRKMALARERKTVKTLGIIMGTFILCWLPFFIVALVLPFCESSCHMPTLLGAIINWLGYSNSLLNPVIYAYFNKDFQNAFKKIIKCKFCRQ

[2] = target: T2, 5-HT2A receptor (Mus musculus, UniProt P35363); assay: Drug-induced Head Twitch Response (HTR); assay type: in vivo; settings: C57BL/6 mice; 1 mg/kg i.p.; 15-to-30-minute window after administration
T2 construct: 8-week old C57BL/6-Elite male and female mice were obtained from Charles River; tissue Charles River; host or cells: living C57BL/6-Elite mice (neuronal receptor, in vivo)
T2 sequence (P35363 whole entry): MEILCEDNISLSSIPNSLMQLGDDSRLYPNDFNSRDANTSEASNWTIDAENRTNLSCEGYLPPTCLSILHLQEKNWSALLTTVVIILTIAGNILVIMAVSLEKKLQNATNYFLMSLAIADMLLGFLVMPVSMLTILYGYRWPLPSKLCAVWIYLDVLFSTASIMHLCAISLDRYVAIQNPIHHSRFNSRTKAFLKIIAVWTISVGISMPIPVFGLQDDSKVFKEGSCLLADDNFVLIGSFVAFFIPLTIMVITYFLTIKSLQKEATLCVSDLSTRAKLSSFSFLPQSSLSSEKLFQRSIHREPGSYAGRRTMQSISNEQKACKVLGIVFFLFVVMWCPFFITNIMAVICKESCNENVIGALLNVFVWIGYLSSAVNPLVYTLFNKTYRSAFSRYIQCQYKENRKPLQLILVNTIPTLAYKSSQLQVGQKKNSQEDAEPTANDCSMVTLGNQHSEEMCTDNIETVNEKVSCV

[3] = target: 5-HT2A receptor (Homo sapiens, UniProt P28223); assay: [3H]ketanserin competition binding assay (SPA); settings: 1 nM [3H]ketanserin; control ligands, FIG. 3E, 3F
Chain of 5-HT2A receptor (Homo sapiens, UniProt P28223) (P28223 whole entry): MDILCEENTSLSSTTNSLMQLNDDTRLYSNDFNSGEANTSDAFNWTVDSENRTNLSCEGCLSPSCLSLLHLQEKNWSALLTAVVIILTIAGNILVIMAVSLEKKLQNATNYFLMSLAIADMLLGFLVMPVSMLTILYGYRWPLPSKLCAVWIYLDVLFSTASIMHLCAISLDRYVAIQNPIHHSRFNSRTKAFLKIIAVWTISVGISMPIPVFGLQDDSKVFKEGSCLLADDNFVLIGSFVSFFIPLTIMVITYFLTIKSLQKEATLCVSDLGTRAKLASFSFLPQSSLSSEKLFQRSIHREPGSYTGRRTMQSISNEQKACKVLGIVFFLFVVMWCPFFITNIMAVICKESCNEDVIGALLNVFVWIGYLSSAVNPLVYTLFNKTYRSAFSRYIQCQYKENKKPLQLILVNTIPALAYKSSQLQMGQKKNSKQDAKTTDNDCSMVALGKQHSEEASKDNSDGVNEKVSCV

[4] = Stability / psilocin release in enzyme-free control buffer; assay type: in vitro ADME; settings: enzyme-free control buffer pH 7.4, 37° C., 2 hours
Source text: (§1) A fundamental evaluation in drug development is the assessment of absorption, distribution, metabolism, excretion, and pharmacokinetics (ADME/PK) (Eddershaw et al., 2000, Drug Discovery Today 5(9): 409-414). […] Drug stability upon exposure to human liver microsomes and liver S9 cellular fractions is a common in vitro assay to approximate in vivo, liver-based drug metabolism (Richardson et al., 2016 Drug Metabolism Letters 10:83-90). First-pass metabolism is also often approximated in vitro using intestinal microsome and cellular S9 fractions (Hatley et al., 2017, Biopharmaceuticals & Drug Disposition, 38(2):155-160). […] Supernatants were analyzed for the presence of candidate prodrugs (parent molecule) and psilocin (the predicted metabolite) using Orbitrap LC-MS (Thermo Scientific) using previously described methods (Menéndez-Perdomo et al., 2021, J Mass Spectrom, 56: e4683). […] Assay concentrations (μM) of both parent ‘prodrug’ molecule and psilocin metabolite, as quantified through LC-MS using routine standard curve procedures, were plotted as functions of assay time (minutes). The metabolism rate (T1/2) was determined from the metabolism curve plot using the one phase decay feature of GraphPad PRISM software (Version 9.2.0). The quantity of parent prodrug at time zero was set as 100%. […]

[5] = Metabolic stability / psilocin release in human liver microsomes; assay type: in vitro ADME; settings: 400 μg/ml HLM, NADPH, 37° C.
Source text: as §1

[6] = Metabolic stability / psilocin release in human liver S9; assay type: in vitro ADME; settings: 400 μg/ml HLS9, NADPH, 37° C.
Source text: as §1

[7] = Mouse PK study (IV and PO), plasma parent compound and psilocin by LC-MS/MS; assay type: in vivo; settings: mouse; for Plasma concentration of psilocybin: psilocybin 1 mg/kg i.v.
Source text: Briefly, the procedure was as follows. […] 19, 2022.

COCCOCCOCC(=O)Oc1cccc2[nH]cc(CCN(C)C)c12 [C(III)]
5-HT1A receptor modulation, +5-HT1A vs −5-HT1A cultures [1]: significant receptor modulation
Head Twitch Response (HTR) incidence relative to vehicle [2]: Elevated incidences of HTR

CN(C)CCc1c[nH]c2cccc(OC(=O)c3cccc(C(=O)Oc4cccc5[nH]cc(CCN(C)C)c45)c3)c12 [C(VII)]
5-HT1A receptor modulation, +5-HT1A vs −5-HT1A cultures [1]: no significant receptor modulation
Head Twitch Response (HTR) incidence relative to vehicle [2]: Elevated incidences of HTR

COC(=O)c1cccc(C(=O)Oc2cccc3[nH]cc(CCN(C)C)c23)c1 [C(XLIII)]
5-HT1A receptor modulation, +5-HT1A vs −5-HT1A cultures [1]: receptor modulation at higher ligand concentrations

CN(C)CCc1c[nH]c2cccc(O)c12 [psilocin, reference compound]
cAMP levels in +5-HT1A cells with increasing ligand [1]: reduction in cAMP levels
competition binding vs [3H]ketanserin at 5-HT2A receptor [3]: binding

CN(C)CCc1c[nH]c2cccc(OP(=O)(O)O)c12 [psilocybin, reference compound]
stability in assay buffer [4]: stability of psilocybin was confirmed
stability / conversion to psilocin in liver fractions (HLM) [5]: stable in liver fractions with no conversion to psilocin
stability / conversion to psilocin in liver fractions (HLS9) [6]: stable in liver fractions with no conversion to psilocin
detectability of parent compound in plasma, i.v. dosing ([7]; 1 mg/kg i.v.): only detectable in i.v. administered animals
detectability of parent compound in plasma, oral dosing ([7]; oral, any dose (1, 3, 10 mg/kg)): not detectable
Plasma concentration of psilocybin ([7]; 2 h): No Peak
Plasma concentration of psilocybin ([7]; 4 h): No Peak
Plasma concentration of psilocybin ([7]; 6 h): No Peak
Plasma concentration of psilocin ([7]; psilocybin 1.56 mg/kg oral (nominal 1 mg/kg), 24 h): BLQ

NCCc1c[nH]c2ccc(O)cc12 [serotonin, reference compound]
cAMP levels in +5-HT1A cells with increasing ligand [1]: reduction in cAMP levels

N[C@@H](Cc1c[nH]c2ccccc12)C(=O)O [tryptophan, reference compound]
cAMP levels in +5-HT1A cells with increasing ligand [1]: no reduction in cellular cAMP levels
competition binding vs [3H]ketanserin at 5-HT2A receptor [3]: no binding
